Results from article PMC8725837, “2-Arylquinolines as novel anticancer agents with dual EGFR/FAK kinase inhibitory activity: synthesis, biological evaluation, and molecular modelling insights” (Journal of Enzyme Inhibition and Medicinal Chemistry, 2021).

How the values were obtained:
BTK = target: T1, BTK (Homo sapiens, UniProt Q06187); assay: Z`-LYTE kinase profiling, BTK; format: biochemical
T1 construct: purchased Invitrogen/Life Technologies

[1] = tested on: MDMBA-231 breast cancer cell line; assay: MTT antiproliferative assay, MDMBA-231; format: cell-based; conditions: 10 µM, 24 h
Protocol: (§1) At least, three independent experiments were performed.

EGFR = EGFR (Homo sapiens, UniProt P00533); assay: Z`-LYTE kinase inhibitory assay, EGFR
FAK = FAK (Homo sapiens, UniProt Q05397); assay: Z`-LYTE kinase inhibitory assay, FAK
[2] = tested on: HCT-116 colorectal cancer cell line; assay: MTT antiproliferative assay, HCT-116; conditions: for GI% HCT-116: 10 µM, 24 h, MTT; for IC50: Homo sapiens, HCT-116, 24 h, read-out: IC50 HCT-116 (half maximal growth inhibitory concentration)
[3] = tested on: DLD-1 colorectal cancer cell line; assay: MTT antiproliferative assay, DLD-1; conditions: for GI% DLD1: 10 µM, 24 h, MTT; for IC50: Homo sapiens, DLD-1, 24 h, read-out: IC50 DLD1 (half maximal growth inhibitory concentration)
Protocol: After the incubation of the tested compounds for 24 h, the percent growth inhibition (GI%) was calculated.
Cells were seeded at 1 × 10^4 cells/well and cultured overnight in a 96-well plate. […] Then, 150 µl DMSO was used to solubilise MTT formazan crystals. Finally, the plates were shaken, and the optical density was determined at 570 nm using ELISA plate reader. At least, three independent experiments were performed. Percentage of growth inhibition was determined as (1-[OD of treated cells/OD of control cells]). […] The IC50 values were calculated using Prism v0.8 software (GraphPad Software Inc., La Jolla, CA).

VEGFR-1 = target: T2, VEGFR-1 (Homo sapiens, UniProt P17948); assay: Z`-LYTE kinase profiling, VEGFR-1; format: biochemical
T2 construct: purchased Invitrogen/Life Technologies
T2 sequence (P17948 27-1338): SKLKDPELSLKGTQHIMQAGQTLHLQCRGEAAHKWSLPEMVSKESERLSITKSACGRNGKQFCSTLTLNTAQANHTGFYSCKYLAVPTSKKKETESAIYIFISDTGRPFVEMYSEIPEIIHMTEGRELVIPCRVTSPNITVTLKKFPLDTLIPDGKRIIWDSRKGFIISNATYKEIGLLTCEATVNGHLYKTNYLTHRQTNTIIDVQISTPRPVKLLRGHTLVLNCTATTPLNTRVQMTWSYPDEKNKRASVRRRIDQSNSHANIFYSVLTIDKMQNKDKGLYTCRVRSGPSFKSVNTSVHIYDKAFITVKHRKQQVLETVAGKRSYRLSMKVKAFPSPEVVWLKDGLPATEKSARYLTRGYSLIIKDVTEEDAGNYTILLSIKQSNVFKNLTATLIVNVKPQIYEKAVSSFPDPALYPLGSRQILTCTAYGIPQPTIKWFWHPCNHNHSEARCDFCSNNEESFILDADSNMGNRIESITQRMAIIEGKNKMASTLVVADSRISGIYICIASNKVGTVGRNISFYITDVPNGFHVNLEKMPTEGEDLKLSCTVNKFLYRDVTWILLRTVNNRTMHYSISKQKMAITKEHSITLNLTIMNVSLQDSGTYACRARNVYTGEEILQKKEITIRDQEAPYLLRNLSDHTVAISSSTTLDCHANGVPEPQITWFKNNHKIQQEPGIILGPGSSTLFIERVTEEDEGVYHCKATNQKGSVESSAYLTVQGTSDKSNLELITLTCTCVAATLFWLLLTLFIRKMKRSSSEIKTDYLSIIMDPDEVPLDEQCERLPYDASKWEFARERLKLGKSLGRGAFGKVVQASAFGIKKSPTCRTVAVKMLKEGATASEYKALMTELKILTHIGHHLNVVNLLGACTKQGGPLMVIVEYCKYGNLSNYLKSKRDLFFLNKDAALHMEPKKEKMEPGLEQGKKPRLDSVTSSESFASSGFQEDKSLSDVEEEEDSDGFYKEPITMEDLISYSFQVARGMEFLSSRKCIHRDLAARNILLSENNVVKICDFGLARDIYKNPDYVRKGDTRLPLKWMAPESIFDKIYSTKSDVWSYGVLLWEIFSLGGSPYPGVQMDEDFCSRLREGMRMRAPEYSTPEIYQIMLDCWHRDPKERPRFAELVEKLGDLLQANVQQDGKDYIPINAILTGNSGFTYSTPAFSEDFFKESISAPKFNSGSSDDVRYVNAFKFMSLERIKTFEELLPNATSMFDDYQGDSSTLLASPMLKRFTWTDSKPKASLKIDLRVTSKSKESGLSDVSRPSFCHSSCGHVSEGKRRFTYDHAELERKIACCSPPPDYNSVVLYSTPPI

VEGFR-2 = target: T3, VEGFR-2 (Homo sapiens, UniProt P35968); assay: Z`-LYTE kinase profiling, VEGFR-2; format: biochemical
T3 construct: purchased Invitrogen/Life Technologies

[4] = tested on: MCF-7 breast cancer cell line; assay: MTT antiproliferative assay, MCF-7; format: cell-based; conditions: 10 µM, 24 h
Protocol: as §1

IGF-1R = target: T4, IGF-1R (Homo sapiens, UniProt P08069); assay: Z`-LYTE kinase profiling, IGF-1R; format: biochemical
T4 construct: purchased Invitrogen/Life Technologies
T4 sequence (P08069 31-1367): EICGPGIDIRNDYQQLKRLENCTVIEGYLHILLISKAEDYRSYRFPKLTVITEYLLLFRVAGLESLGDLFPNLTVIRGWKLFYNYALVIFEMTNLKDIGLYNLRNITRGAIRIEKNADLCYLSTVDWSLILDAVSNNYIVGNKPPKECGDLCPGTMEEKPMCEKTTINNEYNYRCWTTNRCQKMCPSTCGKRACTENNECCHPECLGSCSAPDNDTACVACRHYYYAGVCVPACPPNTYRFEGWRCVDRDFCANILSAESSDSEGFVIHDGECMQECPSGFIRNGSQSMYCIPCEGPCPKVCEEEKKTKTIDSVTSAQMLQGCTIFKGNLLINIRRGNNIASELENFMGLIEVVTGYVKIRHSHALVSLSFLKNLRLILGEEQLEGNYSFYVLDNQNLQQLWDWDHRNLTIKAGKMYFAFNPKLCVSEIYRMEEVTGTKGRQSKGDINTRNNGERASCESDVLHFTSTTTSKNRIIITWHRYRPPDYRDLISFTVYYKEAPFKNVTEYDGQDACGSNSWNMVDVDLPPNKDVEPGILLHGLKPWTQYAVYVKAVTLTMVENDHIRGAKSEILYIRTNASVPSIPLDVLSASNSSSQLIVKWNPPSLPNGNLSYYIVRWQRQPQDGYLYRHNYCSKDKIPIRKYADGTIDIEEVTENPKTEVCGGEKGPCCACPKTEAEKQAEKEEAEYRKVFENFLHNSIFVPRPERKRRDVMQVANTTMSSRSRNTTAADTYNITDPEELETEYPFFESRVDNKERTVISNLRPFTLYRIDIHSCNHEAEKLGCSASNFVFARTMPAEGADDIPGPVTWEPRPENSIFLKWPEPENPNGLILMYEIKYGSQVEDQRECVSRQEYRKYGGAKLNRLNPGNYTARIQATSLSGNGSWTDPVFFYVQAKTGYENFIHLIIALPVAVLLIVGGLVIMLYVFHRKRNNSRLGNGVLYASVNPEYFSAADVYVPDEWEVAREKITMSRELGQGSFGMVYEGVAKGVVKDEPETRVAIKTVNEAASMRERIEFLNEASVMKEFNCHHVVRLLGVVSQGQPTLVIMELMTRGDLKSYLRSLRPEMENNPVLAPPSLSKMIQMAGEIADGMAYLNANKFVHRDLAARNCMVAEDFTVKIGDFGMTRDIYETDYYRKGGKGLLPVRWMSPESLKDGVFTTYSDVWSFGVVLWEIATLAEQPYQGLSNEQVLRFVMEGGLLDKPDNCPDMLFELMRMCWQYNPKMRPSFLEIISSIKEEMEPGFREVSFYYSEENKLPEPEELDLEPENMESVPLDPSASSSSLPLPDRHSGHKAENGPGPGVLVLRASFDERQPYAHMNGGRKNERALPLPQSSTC

HER-2 = target: T5, HER-2 (Homo sapiens, UniProt P04626); assay: Z`-LYTE kinase profiling, HER-2; format: biochemical
T5 construct: purchased Invitrogen/Life Technologies
T5 sequence (P04626 23-1255): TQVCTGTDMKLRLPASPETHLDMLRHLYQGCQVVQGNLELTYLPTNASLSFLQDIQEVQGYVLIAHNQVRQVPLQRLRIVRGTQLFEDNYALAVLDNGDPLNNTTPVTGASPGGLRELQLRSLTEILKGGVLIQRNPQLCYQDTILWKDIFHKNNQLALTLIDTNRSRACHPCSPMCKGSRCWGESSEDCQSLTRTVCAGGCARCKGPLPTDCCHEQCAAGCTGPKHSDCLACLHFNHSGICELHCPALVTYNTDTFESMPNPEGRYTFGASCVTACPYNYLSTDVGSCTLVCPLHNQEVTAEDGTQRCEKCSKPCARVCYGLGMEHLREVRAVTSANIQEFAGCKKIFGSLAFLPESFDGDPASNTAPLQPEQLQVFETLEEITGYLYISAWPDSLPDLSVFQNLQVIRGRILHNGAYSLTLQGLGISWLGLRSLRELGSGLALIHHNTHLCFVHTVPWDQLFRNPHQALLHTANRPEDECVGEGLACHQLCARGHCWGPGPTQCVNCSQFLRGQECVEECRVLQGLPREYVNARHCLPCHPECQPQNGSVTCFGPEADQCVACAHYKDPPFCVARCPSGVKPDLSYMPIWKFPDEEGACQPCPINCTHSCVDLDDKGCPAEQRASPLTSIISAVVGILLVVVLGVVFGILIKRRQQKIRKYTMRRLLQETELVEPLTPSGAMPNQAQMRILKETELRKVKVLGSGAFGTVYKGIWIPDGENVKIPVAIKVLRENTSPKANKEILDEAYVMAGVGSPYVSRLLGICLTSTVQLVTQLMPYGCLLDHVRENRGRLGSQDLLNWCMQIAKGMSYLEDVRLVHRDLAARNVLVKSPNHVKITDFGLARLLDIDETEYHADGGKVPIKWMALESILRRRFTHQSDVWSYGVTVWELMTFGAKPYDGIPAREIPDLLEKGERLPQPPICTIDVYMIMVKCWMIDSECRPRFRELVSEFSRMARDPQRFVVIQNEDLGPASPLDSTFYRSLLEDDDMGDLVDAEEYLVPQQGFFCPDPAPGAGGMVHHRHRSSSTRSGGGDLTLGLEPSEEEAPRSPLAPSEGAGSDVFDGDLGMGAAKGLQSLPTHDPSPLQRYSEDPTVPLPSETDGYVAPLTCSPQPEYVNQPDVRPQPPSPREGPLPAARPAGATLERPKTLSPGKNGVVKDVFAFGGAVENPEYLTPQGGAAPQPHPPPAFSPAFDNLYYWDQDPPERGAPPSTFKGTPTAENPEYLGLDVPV

recombinant human TOP1 = target: T6, recombinant human TOP1 (Homo sapiens, UniProt P11387); assay: Topoisomerase I-mediated DNA cleavage assay; conditions: tested at 0.1, 1, 10, 100 µM
T6 sequence (P11387 1-765): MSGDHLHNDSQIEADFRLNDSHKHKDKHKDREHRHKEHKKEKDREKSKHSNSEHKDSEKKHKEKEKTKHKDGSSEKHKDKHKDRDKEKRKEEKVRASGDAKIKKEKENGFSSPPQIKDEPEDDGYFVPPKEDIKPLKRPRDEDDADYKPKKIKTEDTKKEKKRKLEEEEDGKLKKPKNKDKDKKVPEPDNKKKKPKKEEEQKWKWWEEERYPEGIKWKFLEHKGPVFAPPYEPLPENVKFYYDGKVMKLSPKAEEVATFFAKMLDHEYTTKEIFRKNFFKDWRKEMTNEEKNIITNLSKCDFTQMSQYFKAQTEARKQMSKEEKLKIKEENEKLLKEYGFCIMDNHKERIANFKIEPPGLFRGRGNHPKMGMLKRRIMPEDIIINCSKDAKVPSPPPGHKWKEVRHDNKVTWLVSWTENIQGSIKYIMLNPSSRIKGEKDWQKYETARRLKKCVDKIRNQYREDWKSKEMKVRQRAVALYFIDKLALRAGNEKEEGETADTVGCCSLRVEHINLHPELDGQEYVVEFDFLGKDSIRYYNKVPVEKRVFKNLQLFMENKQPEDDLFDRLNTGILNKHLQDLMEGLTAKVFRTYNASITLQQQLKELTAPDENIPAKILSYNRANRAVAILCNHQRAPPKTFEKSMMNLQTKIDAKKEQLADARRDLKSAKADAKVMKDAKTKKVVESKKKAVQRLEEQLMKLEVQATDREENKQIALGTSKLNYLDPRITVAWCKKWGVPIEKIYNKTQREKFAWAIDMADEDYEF

c-Src = target: T7, c-Src (Homo sapiens, UniProt P12931); assay: Z`-LYTE kinase profiling, c-Src; format: biochemical
T7 construct: purchased Invitrogen/Life Technologies
T7 sequence (P12931 whole entry): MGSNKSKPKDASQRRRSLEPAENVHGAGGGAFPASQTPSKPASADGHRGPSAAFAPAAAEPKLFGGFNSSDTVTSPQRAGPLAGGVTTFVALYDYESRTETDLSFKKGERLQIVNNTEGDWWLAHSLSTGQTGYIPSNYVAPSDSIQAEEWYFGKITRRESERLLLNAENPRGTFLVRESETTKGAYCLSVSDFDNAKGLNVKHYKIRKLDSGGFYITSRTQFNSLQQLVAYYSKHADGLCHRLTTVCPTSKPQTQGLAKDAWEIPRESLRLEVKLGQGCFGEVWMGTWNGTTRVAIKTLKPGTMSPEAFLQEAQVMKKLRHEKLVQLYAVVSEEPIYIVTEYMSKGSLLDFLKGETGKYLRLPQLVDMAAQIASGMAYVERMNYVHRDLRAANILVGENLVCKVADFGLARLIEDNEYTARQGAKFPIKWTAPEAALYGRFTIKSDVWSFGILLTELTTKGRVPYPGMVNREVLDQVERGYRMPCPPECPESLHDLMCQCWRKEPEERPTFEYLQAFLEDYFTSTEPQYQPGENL

FRK = target: T8, FRK (Homo sapiens, UniProt P42685); assay: Z`-LYTE kinase profiling, FRK; format: biochemical
T8 construct: purchased Invitrogen/Life Technologies

[5] = tested on: HeLa cervical cancer cell line; assay: MTT antiproliferative assay, HeLa; format: cell-based; conditions: 10 µM, 24 h
Protocol: as §1

T1 sequence (Q06187 whole entry): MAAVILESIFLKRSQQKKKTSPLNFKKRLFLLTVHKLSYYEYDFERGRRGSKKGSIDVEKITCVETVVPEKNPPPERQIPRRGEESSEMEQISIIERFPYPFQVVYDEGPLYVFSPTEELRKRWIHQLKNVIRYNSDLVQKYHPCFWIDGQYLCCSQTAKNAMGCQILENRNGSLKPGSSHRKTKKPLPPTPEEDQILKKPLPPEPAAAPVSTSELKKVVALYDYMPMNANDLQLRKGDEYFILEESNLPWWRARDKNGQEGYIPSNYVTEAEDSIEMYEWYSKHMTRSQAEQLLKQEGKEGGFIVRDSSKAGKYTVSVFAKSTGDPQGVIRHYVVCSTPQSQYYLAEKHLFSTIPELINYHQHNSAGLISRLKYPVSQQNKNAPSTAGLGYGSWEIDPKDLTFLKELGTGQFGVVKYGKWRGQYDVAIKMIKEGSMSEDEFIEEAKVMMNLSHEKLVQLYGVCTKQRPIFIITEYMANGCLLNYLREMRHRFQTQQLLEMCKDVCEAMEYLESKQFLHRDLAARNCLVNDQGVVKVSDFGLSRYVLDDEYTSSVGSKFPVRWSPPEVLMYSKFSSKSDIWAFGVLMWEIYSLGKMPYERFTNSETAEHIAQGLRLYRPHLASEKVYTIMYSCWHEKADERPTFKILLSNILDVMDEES

Compound | IC50 (BTK) | IC50 (EGFR) | IC50 (FAK) | melting point | IC50 [2] | IC50 [3] | IC50 (VEGFR-1) | IC50 (VEGFR-2) | IC50 (IGF-1R) | IC50 (HER-2) | TOP1 inhibitory activity (semiquantitative score relative to 1 µM CPT) (recombinant human TOP1) | IC50 (c-Src) | IC50 (FRK) | GI% MDMBA-231 [1] | GI% HCT-116 [2] | GI% DLD1 [3] | GI% MCF-7 [4] | GI% Hela [5]
COc1cc2nc(-c3ccc(C(F)(F)F)cc3)cc(OCCCNC3CCCCC3)c2cc1OC [6g, N-(3-((6,7-dimethoxy-2–(4-(trifluoromethyl)phenyl)quinolin-4-yl)oxy)propyl)cyclohexan-amine] | 4760 nM | 365 ± 14.8 nM | 146 ± 10.5 nM | 131 to 133 °C | 46800 ± 3160 nM | 75400 ± 5460 nM | 1110 nM | 997 nM | 1480 nM | 455 nM | 0 | 2760 nM | 1280 nM | 48.15% | 22.16% | 25.36% | 76.38% | 46.28%
COc1cc2nc(-c3ccc(C)cc3)cc(OCCCn3ccnc3)c2cc1OC [6o, 4-(3-(1H-imidazol-1-yl)propoxy)-6,7-dimethoxy-2-(p-tolyl)quinoline] | 3830 nM | 256 ± 6.94 nM | 205 ± 8.04 nM | 203 to 205 °C | > 100000 nM | > 100000 nM | 511 nM | 3620 nM | 408 nM | 1380 nM | 0 | 3490 nM | 786 nM | 8.64% | 1.08% | 12.36% | 5.36% | 9.16%
COc1cc2nc(-c3ccc(Cl)cc3)cc(OCCCNC3CCCCC3)c2cc1OC [6b, N-(3-((2–(4-chlorophenyl)-6,7-dimethoxyquinolin-4-yl)oxy)propyl)cyclohexanamine] | 8520 nM | 45.3 ± 5.36 nM | 98.2 ± 4.67 nM | 118 to 120 °C | 16800 ± 1560 nM | 19400 ± 2150 nM | 3330 nM | 6740 nM | 8060 nM | 123 nM | −/+ (−/+: 0–25% 1 µM CPT) | 2500 nM | 9150 nM | 19.67% | 42.81% | 36.25% | 23.49% | 12.81%
Clc1ccc(-c2cc(OCCCN3CCOCC3)c3cc(Br)ccc3n2)cc1 [16b, 4-(3-((6-bromo-2-(4-chlorophenyl)quinolin-4-yl)oxy)propyl)morpholine] | 2880 nM | 313 ± 15.3 nM | 50.4 ± 4.81 nM | 137 to 139 °C | 4220 ± 1050 nM | 8690 ± 2640 nM | 1270 nM | 3230 nM | 3490 nM | 2310 nM | 0 | 1320 nM | 3130 nM | 45.31% | 87.61% | 55.82% | 19.38% | 35.94%
Clc1ccc(-c2cc(OCCCn3ccnc3)c3cc4c(cc3n2)OCO4)cc1 [12a, 8-(3-(1H-imidazol-1-yl)propoxy)-6-(4-chlorophenyl)-[1,3] dioxolo[4,5-g]quinoline] | 196 nM | 125 ± 7.94 nM | 225 ± 14 nM | 146 to 148 °C | > 100000 nM | > 100000 nM | 1760 nM | 48.3 nM | 5370 nM | 34.8 nM | −/+ (−/+: 0–25% 1 µM CPT) | 55.3 nM | 734 nM | 4.98% | 16.25% | 21.25% | 11.72% | 22.79%
COc1cc2nc(-c3ccc(Cl)cc3)cc(OCCCNCC3CCCO3)c2cc1OC (stereo not drawn) [6d, 3-((2–(4-chlorophenyl)-6,7-dimethoxyquinolin-4-yl)oxy)-N-((tetrahydrofuran-2-yl)methy-l)propan-1-amine] | 1370 nM | 46.4 ± 4.09 nM | 37 ± 2.34 nM | 108 to 110 °C | 4670 ± 850 nM | 8150 ± 1050 nM | 303 nM | 492 nM | 1590 nM | 695 nM | −/+ (−/+: 0–25% 1 µM CPT) | 408 nM | 507 nM | 63.39% | 82.61% | 75.64% | 71.97% | 26.98%
COc1ccc(-c2ccc3nc(-c4ccc(F)cc4)cc(OCCCn4ccnc4)c3c2)cc1 [20c, 4-(3-(1H-imidazol-1-yl)propoxy)-2-(4-fluorophenyl)-6-(4-methoxyphenyl)quinoline] | 8670 nM | 362 ± 5.26 nM | 91 ± 5.85 nM | 176 to 178 °C | 12500 ± 3050 nM | 16000 ± 1100 nM | 1750 nM | 8970 nM | 1880 nM | 1230 nM | 0 | 9050 nM | 1440 nM | 32.11% | 38.64% | 41.34% | 76.82% | 22.08%

Now from value to compound, other results behind:

IC50 (BTK) | IC50 (EGFR) | IC50 (FAK) | melting point | IC50 [2] | IC50 [3] | IC50 (VEGFR-1) | IC50 (VEGFR-2) | IC50 (IGF-1R) | IC50 (HER-2) | TOP1 inhibitory activity (semiquantitative score relative to 1 µM CPT) (recombinant human TOP1) | IC50 (c-Src) | IC50 (FRK) | Compound | GI% MDMBA-231 [1] | GI% HCT-116 [2] | GI% DLD1 [3] | GI% MCF-7 [4] | GI% Hela [5]
4940 nM | 157 ± 11.4 nM | 211 ± 8.96 nM | 209 to 211 °C | > 100000 nM | > 100000 nM | 7330 nM | 3760 nM | 2160 nM | 82.1 nM | −/+ (−/+: 0–25% 1 µM CPT) | 198 nM | 9000 nM | COc1cc2nc(-c3ccc(Cl)cc3)cc(OCCCn3ccnc3)c2cc1OC [6e, 4-(3-(1H-imidazol-1-yl)propoxy)-2–(4-chlorophenyl)-6,7-dimethoxyquinoline] | 4.67% | 22.03% | 15.79% | 5.34% | 22.36%
653 nM | 450.2 ± 4.25 nM | 273 ± 2.84 nM | 138 to 140 °C | 9200 ± 2490 nM | 74900 ± 5460 nM | 2540 nM | 855 nM | 453 nM | 897 nM | 0 | 1450 nM | 6530 nM | FC(F)(F)c1ccc(-c2cc(OCCCN3CCOCC3)c3cc4c(cc3n2)OCO4)cc1 [12d, 8-(3-morpholinopropoxy)-6-(4-(trifluoromethyl)phenyl)-[1,3]dioxolo[4,5-g]quinoline] | 9.36% | 54.37% | 22.58% | 26.54% | 36.67%
 |  |  |  | 170 ± 40 nM | 120 ± 50 nM |  |  |  |  |  |  |  | CNC(=O)c1ccccc1Nc1nc(Nc2ccc(N3CCOCC3)cc2OC)ncc1Cl [TAE226, reference compound] |  |  |  |  | 
 |  |  |  | 6940 ± 1240 nM |  |  |  |  |  |  |  |  | COc1cc2ncnc(Nc3ccc(F)c(Cl)c3)c2cc1OCCCN1CCOCC1 [Gefitinib, reference compound] |  |  |  |  | 
